Measured values taken from ChEMBL document CHEMBL1159266, “Antineoplastic agents, 325. Isolation and structure of the human cancer cell growth inhibitory cyclic octapeptides phakellistatin 10 and 11 from Phakellia sp” (1995).
Values after ≈ are worked out from the molar mass of the structure shown. Where a SMILES comes first, the peptide text is derived from it.

Legend:
Format in all cases: functional
L1210 = experiment: Cytotoxicity against mouse L1210 cells; details: read-out: ED50 (the source's name)
[1] = Growth inhibition of human NCI60 cells
P388 = experiment: Cytotoxicity against mouse P388 cells; details: read-out: ED50 (the source's name)

Row | SMILES | EC50 (L1210) [mg/L] | GI50 [1] [µM] | EC50 (P388) [mg/L]
1 | CC(C)C[C@@H]1NC(=O)[C@@H]2CCCN2C(=O)[C@H](C(C)C)NC(=O)[C@H](Cc2c[nH]c3ccccc23)NC(=O)[C@@H]2CCCN2C(=O)[C@H](CC(C)C)NC(=O)[C@@H]2CCCN2C(=O)[C@H]([C@@H](C)O)NC1=O [HYMENAMIDE H] (cyclo(LPWVPLTP)) | 6.3 (≈ 6.97 µM) | – | –
2 | CC[C@H](C)[C@@H]1NC(=O)[C@H](Cc2ccccc2)NC(=O)[C@@H]2CCCN2C(=O)[C@H](Cc2ccccc2)NC(=O)[C@@H]2CCCN2C(=O)[C@H](CCC(N)=O)NC(=O)[C@@H]2CCCN2C(=O)[C@H](Cc2ccccc2)NC1=O [PHAKELLI STATIN 11] (cyclo(FIFPQPFP)) | – | 0.132 | 0.2 (≈ 0.205 µM)
3 | CC(C)[C@@H]1NC(=O)[C@H](CCCCN)NC(=O)[C@H](Cc2c[nH]c3ccccc23)NC(=O)[C@H](Cc2ccccc2)NC(=O)[C@H](CC(=O)O)NC(=O)[C@H](Cc2ccc(O)cc2)NC(=O)[C@@H]2CCCN2C(=O)[C@H](Cc2ccc(O)cc2)NC1=O [HYMENAMIDE J] (cyclo(DFWKVYPY)) | 2.6 (≈ 2.37 µM) | – | –
4 | CC[C@H](C)[C@@H]1NC(=O)[C@@H]2CCCN2C(=O)[C@H]([C@@H](C)O)NC(=O)[C@H](CC(C)C)NC(=O)[C@@H]2CCCN2C(=O)[C@H](C(C)C)NC(=O)[C@H](Cc2ccc(O)cc2)NC(=O)[C@@H]2CCCN2C1=O [PHAKELLISTATIN 10] (cyclo(IPYVPLTP)) | – | 0.79 | 2.1 (≈ 2.38 µM)
